Assay results published in the supplement of paper PMC10307832.

Key:
Experiment in all cases: relative viability (nuclei count vs DMSO), 5 days (fraction); higher = more cells survive
Sulindac + Lapatinib = compound: CC1=C(CC(=O)O)c2cc(F)ccc2/C1=C\c1ccc([S+](C)[O-])cc1 [Sulindac] + CS(=O)(=O)CCNCc1ccc(-c2ccc3ncnc(Nc4ccc(OCc5cccc(F)c5)c(Cl)c4)c3c2)o1 [Lapatinib] (partner 2 µM)
How it was run: (§1)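 Each reported value is a median over duplicate plates. It expresses relative viability: treated-well nuclei count divided by vehicle-well nuclei count. Lung cancer cell lines in 1536-well plates were dosed by pin tool a day after seeding, alone with one drug or with a fixed anchor-drug dose plus five library-drug doses (not always all listed) in √10 steps, and nuclei were counted after 5 days.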

[1] = compound: CN[C@@H]1C[C@H]2O[C@@](C)([C@@H]1OC)n1c3ccccc3c3c4c(c5c6ccccc6n2c5c31)C(=O)NC4 [Staurosporine] + CC(=O)Nc1cccc(-n2c(=O)n(C3CC3)c(=O)c3c(Nc4ccc(I)cc4F)n(C)c(=O)c(C)c32)c1 [Trametinib] (partner 0.02 µM)
How it was run: as §1

[2] = compound: O=c1[nH]cc(F)c(=O)[nH]1 [5-Fluorouracil] + CCNC(=O)c1noc(-c2cc(C(C)C)c(O)cc2O)c1-c1ccc(CN2CCOCC2)cc1 [Luminespib] (partner 0.01 µM)
How it was run: as §1

[3] = compound: O=c1[nH]cc(F)c(=O)[nH]1 [5-Fluorouracil] + Cc1nc(Nc2ncc(C(=O)Nc3c(C)cccc3Cl)s2)cc(N2CCN(CCO)CC2)n1 [Dasatinib] (partner 0.075 µM)
How it was run: as §1

UMC-11
relative viability (Sulindac + Lapatinib; first compound 0.08 µM): 1.16
relative viability (Sulindac + Lapatinib; first compound 0.253 µM): 1.12
relative viability (Sulindac + Lapatinib; first compound 0.8 µM): 0.758
relative viability (Sulindac + Lapatinib; first compound 2.53 µM): 0.946
relative viability (Sulindac + Lapatinib; first compound 8 µM): 1.15
relative viability ([1]; first compound 0.005 µM): 0.444
relative viability ([1]; first compound 0.01581 µM): 0.0989
relative viability ([1]; first compound 0.05 µM): 0.212
relative viability ([1]; first compound 0.1581 µM): 0.121
relative viability ([1]; first compound 0.5 µM): 0.0798
relative viability ([2]; first compound 0.02 µM): 0.954
relative viability ([2]; first compound 0.2 µM): 0.68
relative viability ([2]; first compound 0.6325 µM): 0.516
relative viability ([2]; first compound 2 µM): 0.396
relative viability ([3]; first compound 0.02 µM): 0.52
relative viability ([3]; first compound 0.2 µM): 0.467
relative viability ([3]; first compound 0.6325 µM): 0.438
relative viability ([3]; first compound 2 µM): 0.358
